Assay results from patent US9045474B2, “Compounds and compositions for mitigating tissue damage and lethality” (The Regents of the University of California, priority 2010, dated 2015).
“Also recorded” adds a separate entry of the source.

What was measured:
C3H mice [1] = assay: Mitigation of radiation-induced lethality in C3H mice (8Gy, LD100/30); details: 8Gy
Description: Radiomitigation studies were conduced by pre-treating C3H mice with the compounds of interest at as concentration of 75 mg/kg and at 24 hrs and 1 hr before an 8 Gy exposure. On a 5×24 mitigation treatment protocol mice were first lethally irradiated with 8 Gy and 24 hrs later received the first subcutaneous injection with the compound suspension with subsequent injections at 48, 72, 96, and 120 hrs. The concentration of the compound in the suspension was 75 mg/kg carrier with either 1N saline or phosphate buffer solution (PBS).
C3H mice in the mitigation experiment were irradiated with 8Gy and then injected with 75 mg/kg 1 hr post exposure and then again 25 hrs post exposure.

[2] = Mitigation assay of analogs at +30 min and +60 min after 8 Gy IR; details: FIG. 20
Description: Fourteen analogs of Yel001 and Yel002, whose structures are shown in FIGS. 19A and 19B, are subject to tests in a mitigation assay at +30 min and +60 min after 8 Gy radiation (IR).

[3] = system: yeast DEL tester strain RS112; assay: DEL assay, UV radiation-induced damage; type: cell-based, Saccharomyces cerevisiae
Description: DEL tester strain was irradiated with 4000 J/m^2 in the ultraviolet range and treated with Yel001 or Yel002 at 60 minutes at the concentration of 15 uM.

RS112 cells = assay: DEL plating assay for mitigation of radiation damage (treatment after 2000Gy); type: cell-based, Saccharomyces cerevisiae
Description: The mitigation protocol is based on the same DEL assay principle of recombination of the disrupted HIS3 gene that renders the cells capable of synthesizing its own histidine following radiation exposure. To establish mitigation properties of the compounds in question, the classical DEL protocol is modified as follows: first the RS112 cells are irradiated with 2000Gy and then the treatments are administered at 0 min, 10 min, 20 min, 30 min, and 60 min, incubated for 2 hrs, and plated on +13 and −His agar plates. The efficacy of the compounds is scored the same way as in the classical DEL protocol. Yel1 and Yel2 analogues that are efficacious in the HTS and classical DEL assay are analyzed for mitigation activity using this modified DEL protocol.
Six confirmed hits were also tested for radioprotection with the compounds being presented to irradiated cells at different time points following irradiation exposure. The DEL Plating Assay was used with a radiation sensitive Saccharomyces cerevisiae RS112 strain.
The general DEL Assay is described above. In this example, DEL assay is a genetic construct in the Saccharomyces cerevisiae RS112 strain where a plasmid with an internal fragment of the HIS3 gene has been integrated at the HIS3 locus, yielding an integrative disruption of the HIS3 gene. […] The construct reverts to HIS3+ by recombination between the two his3 deletion alleles which is, in 99% of the cases, associated with the deletion of the entire 6 kilobasepairs of DNA comprising the integrated plasmid. DEL events are inducible with a variety of DNA-assaulting agents: radiation, smoking, UV exposure, 92% of the known carcinogens, etc.
RS112 cells irradiated with 2000Gy show an induction of the deletion frequencies (DEL events) and roughly a 90% killing.

C3H mice [4] = assay: Toxicity experiments in C3H mice; type: in vivo, mouse; details: 150 mg/kg, 75 mg/kg and 5 mg/kg; 120 days following the injections
Description: Having seen no adverse effects of the chemicals alone on mammalian cell models we performed a preliminary toxicity study on a group of C3H mice. […] In a pilot reproductive toxicity study, 12, week old female mice were paired up with 6 week old male mice and checked daily for the presence of a characteristic “plug” in the female vaginal canal as an indication of mating. As soon as the mating has occurred, males were removed and the females were treated weekly with 75 mg/kg s.c. throughout the gestation period and until the pups were weaned off (8 week treatment course). After weaning, treatment of the offspring was initiated at the same 75 mg/kg s.c. weekly dose. Controls were injected s.c. on the same schedule with the carrier (1N saline). Five treated and five control females gave birth to the same average number of pups per litter (n=6) without any detectable toxicities to the other. 3 litters of each treated and control groups survived to continue the study. No pathologies, toxicities nor adverse effects were observed. There are no developmental or teratogenic deficiencies in mice, average weights (21 g) are the same in both groups also.

DBA/2 Mice = assay: Radiation-induced leukemia model; type: in vivo, mouse
Description: DBA/2 Mice (15/group) were irradiated with ^60Co (3.5 Gy, 0.6 Gy/min) to induce leukemia. One group received no drug, another group of mice were injected s.c. with Yel001 or Yel002 (25 mg/kg) with 5 injections for 5 days. Leukemogenesis was monitored for 90 days. Blood was drawn at days −1, 21, 42, and 63 to monitor for leukemia every 21 days to monitor for leukemia development using WBCs and differentials. This leukemia model takes advantage of non-targeted radiation effects, which are important to the carcinogenic process. This model has a shorter latency period to gamma radiation-induced leukemia (latency to 50% leukemic population: 107 days) than other murine leukemia models such as CBA mouse (399 days: 50% leukemic population). DBA/2 mice were irradiated with 3.5 Gy (^60Co 0.60 Gy/min) and then injected intravenously with (5×10^6) FDC-P1 cells. Animals were then monitored 5×/weekly for 10 weeks-post-injection and then daily after 10 weeks-post-injection until leukemia development and/or euthanasia. After the animal has been determined to be leukemic using hematological parameters, it is euthanized and a necropsy is conducted to definitively determine a conclusive diagnosis of leukemia. Control animals not developing leukemia are assessed at 270 days post experiment initiation. At that time they are euthanized and necropsied.

DEL RS112 tester strain = assay: DEL assay, damage by chemical carcinogen MMS; type: cell-based, Saccharomyces cerevisiae; details: 15 uM, 1 hrs after exposure to MMS
From the text: A DEL assay, described above, is used for assessing mitigation of damage induced by chemical carcinogens by compounds of invention.
Tests in this example show administration of Yel001 and Yel002 confers reduction against chemical carcinogen Methyl methanesulfonate (MMS) in vitro.
Reduction of cytotoxicity and genotoxicity with Yel002 is p<0.007 and p<0.04 restively; p-values for Yel001 are 0.0007 (genotoxicity) and 0.1 for cytotoxicity.

mammalian cell lines = assay: Therapy Bioluminescence Assay (survival following irradiation); type: cell-based; details: data not shown
[5] = system: RS112 strain of S. cerevisiae; assay: Classical DEL plating assay, radioprotection at 2000Gy irradiation; type: cell-based, Saccharomyces cerevisiae
Description: All DEL assays utilize the established methodology of “recombination” (deletion of the interruption segment and consequent end joining of the adjacent sequences) of a disrupted histidine gene that renders yeast cells exposed to radiation capable of growing on media lacking this amino acid. In the classical DEL assay radiation sensitive RS112 strain of S. cerevisiae is added to the compounds of interest suspended in complete media, incubated for 2 hrs, and irradiated at 2000Gy. The cells are then plated onto full (+13) and lacking histidine (−His) agar plates. After incubation the colonies are scored and recombination events are calculated. The efficacy of the compound is evaluated as a reduced fraction of DEL recombinations in comparison to that of irradiated controls without treatment. Radioprotectors decrease the frequency of such recombination frequencies after radiation exposure.
A plasmid with an internal fragment of the HIS3 gene, which is responsible for histidine synthesis in yeast, without which cells cannot survive in media lacking histidine, has been integrated at the HIS3 locus, yielding an integrative disruption of the HIS3 gene (Schiestl, R. H., et al., Genetics, 1988. 119(2): p. 237-47). […]

In the case of `Cc1sc(NC(=O)CN(Cc2ccco2)C(=O)c2ccccc2)c(C(N)=O)c1C` [CJ010], the “mitigation efficacy” value (C3H mice [1]; 75 mg/kg s.c. 5×24 protocol) is reported as “significantly mitigated IR-induced damages and death”, the “survival at 30 days” value (C3H mice [1]; 75 mg/kg s.c. at 24, 48, 72, 96, 120 hrs (5×24)) is reported as 75% and the “mitigation of IR damage” value [2] is reported as “consistently mitigates the IR damage”.

With `Cc1sc(NC(=O)CN(Cc2ccc(F)cc2)C(=O)c2ccccc2)c(C(N)=O)c1C` [Yel001] the “UV genotoxicity and cytotoxicity” value ([3]; 15 uM, P<0.05) was “reduces cell death and genotoxicity; also recorded: significantly reduces genotoxicity and cytotoxicity”, the survival ([3]; 4000 J/m^2 UV, 15 uM at 60 minutes, untreated 0.64%) was 2.91% and the “mitigation efficacy” value (C3H mice [1]; 75 mg/kg 1.25 protocol) was “did show therapeutic benefit”. For the same molecule, the “mitigation efficacy” value (C3H mice [1]; 75 mg/kg 1.25 protocol, listed as Yel1) was “show activity”, the “mice survived LD100/30 irradiation” value (C3H mice [1]; 75 mg/kg at 1 hr and 25 hrs post exposure, past 30 days, first small study) was 67% and the “mitigation efficacy” value (C3H mice [1]; 75 mg/kg s.c. 5×24 protocol) was “did not exhibit significant efficacy”. For the same molecule, the “mitigation efficacy” value (C3H mice [1]; 75 mg/kg s.c. 5×24 protocol, listed as Yel1) was “also showed efficacy”, the percentage of survivors (C3H mice [1]; both protocols, 252 days post irradiation) was 30% and the “animals still alive beyond 30 day window” value (C3H mice [1]; both protocols, +292 days) was 30%. For the same molecule, the “reduction of DEL events (gene reversion frequency)” value (RS112 cells; compound added 0-60 min after 2000Gy, p<0.05) was “decreased DEL frequencies; also recorded: significant reduction of genetic instability”, the “mitigation of radiation cytotoxicity (survival)” value (RS112 cells; compound added at time points after 2000Gy, significant only at 60 min) was “increased survival fractions; also recorded: mitigation of radiation cytotoxicity has been observed” and the “adverse physiological or behavioral effects” value (C3H mice [4]) was “did not show any adverse physiological nor behavioral adverse effects”. For the same molecule, the “first development of leukemia” value (DBA/2 Mice; 3.5 Gy, 25 mg/kg s.c., no drug also within 42 days) was 42 days, the mice exhibiting leukemia (DBA/2 Mice; Day 94, 3.5 Gy, 25 mg/kg s.c. 5 injections, irradiated controls 30%) was 20% and the leukemia frequency (DBA/2 Mice; Day 270, irradiated population 90%) was 50%. The “latency to leukemia development” value (DBA/2 Mice; FIG. 17) was “increased latency to leukemia development”, the “frequency of radiation induced and/or spontaneous cancer” value (DBA/2 Mice; FIG. 18) was “effective for reducing the frequency of radiation induced and spontaneous cancer” and the “genotoxicity and cytotoxicity by MMS” value (DEL RS112 tester strain) was “reduction in genotoxicity and cytotoxicity; also recorded: can be mitigated”. For the same molecule, the “survival following irradiation as compared to that of controls” value (mammalian cell lines) was 130% and the “radioprotector characteristics (genotoxicity and cytotoxicity protection)” value [5] was “radioprotector characteristics”.
